Laboratory results as given in patent US9487504B2, “Imidazolyl analogs as syk inhibitors” (Merck Sharp & Dohme Corp., priority 2012, dated 2016).

What follows are compounds tested against T1, recombinant human GST-Syk (Homo sapiens, UniProt P43405) (assay: Homogeneous Time-Resolved Fluorescence (HTRF) assay for the recombinant human Syk enzyme). Details: ATP 25 μM, 10-dose titration, read-out: rhSYK Activity.
T1 construct: purchased Carna Biosciences 08-176
Assay type: biochemical
How it was run: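 Recombinant GST-hSyk ([…]) was preincubated 10 min at room temperature with inhibitor (0.1% DMSO) in Tris pH 7.5, then reacted for 45 min with 250 nM biotinylated peptide, 5 mM Mg and 25 μM ATP. Phosphorylation was detected by HTRF (Eu-anti-phosphotyrosine/SA-APC). IC50 was derived from a 10-dose titration (10 μM–0.508 nM) with a 4-parameter fit.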
`OC(c1cn(-c2cccc(Nc3cc(Cl)ccn3)n2)cn1)(C1CC1)C1CC1` [Example 81, (1-{6-[(4-chloropyridin-2-yl)amino]pyridin-2-yl}-1H-imidazol-4-yl)(dicyclopropyl)-methanol] was tested, and the IC50 was ≤ 100 nM. With `OC(c1cn(-c2cccc(Nc3nccc(C(F)(F)F)n3)c2)cn1)(C1CC1)C1CC1` [Example 82, dicyclopropyl[1-(3-{[4-(trifluoromethyl)-pyrimidin-2-yl]amino}phenyl)-1H-imidazol-4-yl]methanol] the IC50 was ≤ 100 nM. `OC(c1cn(-c2cccc(Nc3cc(C(F)(F)F)ccn3)n2)cn1)(C1CC1)C1CC1` [Example 83, dicyclopropyl[1-(6-{[4-(trifluoromethyl)-pyridin-2-yl]amino}pyridin-2-yl)-1H-imidazol-4-yl]methanol] was tested, and the IC50 was ≤ 100 nM. In the case of `Nc1cc(Nc2cc(C(F)(F)F)ccn2)nc(-n2cnc(C(O)(C3CC3)C3CC3)c2)c1` [Example 84], the IC50 is reported as ≤ 100 nM. `COC(=O)c1cn(-c2cc(N)cc(Nc3cc(C(F)(F)F)ccn3)n2)cn1` [Example 85, Methyl 1-(4-amino-6-{[4-(trifluoromethyl)-pyridin-2-yl]amino}-pyridin-2-yl)-1H-imidazole-4-carboxylate] was tested, and the IC50 was ≤ 100 nM. In the case of `Cc1ccnc(Nc2cc(C)cc(-n3cnc(C(O)(C4CC4)C4CC4)c3)n2)c1` [Example 86, dicyclopropyl(1-{4-methyl-6-[(4-methylpyridin-2-yl)amino]pyridin-2-yl}-1H-imidazol-4-yl)methanol], the IC50 is reported as ≤ 100 nM. `Cc1ccnc(Nc2cc(C)cc(-n3cnc(C(C)(C)O)c3)n2)c1` [Example 87, 2-(1-{4-methyl-6-[(4-methylpyridin-2-yl)amino]pyridin-2-yl}-1H-imidazol-4-yl)propan-2-ol] was tested, and the IC50 was ≤ 100 nM. In the case of `Cc1cc(Nc2nccc(C(F)(F)F)n2)cc(-n2cnc(C(=O)N3CCCC3)c2)c1` [Example 88, N-{3-methyl-5-[4-(pyrrolidin-1-ylcarbonyl)-1H-imidazol-1-yl]phenyl}-4-(trifluoromethyl)pyrimidin-2-amine], the IC50 is reported as ≤ 100 nM. `Cc1cc(Nc2nccc(C(F)(F)F)n2)cc(-n2cnc(C(=O)NC(C)C)c2)c1` [Example 89, N-(1-methylethyl)-1-(3-methyl-5-{[4-(trifluoromethyl)pyrimidin-2-yl]amino}-phenyl)-1H-imidazole-4-carboxamide] was tested, and the IC50 was 100 to 1000 nM. For `CC(C)(O)c1cn(-c2cc(Cl)cc(Nc3cc(C(F)(F)F)ccn3)n2)cn1` [Example 90, 2-[1-(4-chloro-6-{[4-(trifluoromethyl)pyridin-2-yl]amino}pyridin-2-yl)-1H-imidazol-4-yl]propan-2-ol], the IC50 was ≤ 100 nM. `CC(C)(O)c1cn(-c2cc(C(F)(F)F)cc(Nc3cc(C(F)(F)F)ccn3)n2)cn1` [Example 91, 2-{1-[4-(trifluoro-methyl)-6-{[4-(trifluoromethyl)-pyridin-2-yl]amino}-pyridin-2-yl]-1H-imidazol-4-yl}propan-2-ol] was tested, and the IC50 was 100 to 1000 nM. In the case of `Cc1cc(Nc2cc(C(F)(F)F)ccn2)nc(-n2cnc(C(C)(C)O)c2)c1` [Example 92, 2-[1-(4-methyl-6-{[4-(trifluoromethyl)pyridin-2-yl]amino}pyridin-2-yl)-1H-imidazol-4-yl]propan-2-ol], the IC50 is reported as ≤ 100 nM. With `COC(=O)c1cn(-c2cc(C)cc(Nc3cc(C(F)(F)F)ccn3)n2)cn1` [Example 93, Methyl 1-(4-methyl-6-{[4-(trifluoromethyl)-pyridin-2-yl]amino}-pyridin-2-yl)-1H-imidazole-4-carboxylate] the IC50 was ≤ 100 nM. `CC(C)(O)c1cn(-c2cccc(Nc3cc(C(F)(F)F)ccn3)n2)cn1` [Example 94, 2-[1-(6-{[4-(trifluoromethyl)-pyridin-2-yl]amino}-pyridin-2-yl)-1H-imidazol-4-yl]propan-2-ol] was tested, and the IC50 was ≤ 100 nM. In the case of `Cc1cc(Nc2cc(Cl)ccn2)nc(-n2cnc(C(C)(C)O)c2)c1` [Example 95, 2-(1-{6-[(4-chloropyridin-2-yl)amino]-4-methylpyridin-2-yl}-1H-imidazol-4-yl)propan-2-ol], the IC50 is reported as ≤ 100 nM. In the case of `COC(=O)c1cn(-c2cccc(Nc3cc(C(F)(F)F)ccn3)n2)cn1` [Example 96, Methyl 1-(6-{[4-(trifluoromethyl)pyridin-2-yl]amino}pyridin-2-yl)-1H-imidazole-4-carboxylate], the IC50 is reported as ≤ 100 nM. `COC(=O)c1cn(-c2cc(C)cc(Nc3cc(Cl)ccn3)n2)cn1` [Example 97, Methyl 1-{6-[(4-chloropyridin-2-yl)amino]-4-methylpyridin-2-yl}-1H-imidazole-4-carboxylate] was tested, and the IC50 was ≤ 100 nM. `COC(=O)c1cn(-c2cc(C)cc(Nc3nccc(C(F)(F)F)n3)c2)cn1` [Example 98, Methyl 1-(3-methyl-5-{[4-(trifluoromethyl)-pyrimidin-2-yl]amino}phenyl)-1H-imidazole-4-carboxylate] was tested, and the IC50 was ≤ 100 nM. With `Cc1cc(Nc2nccc(C(F)(F)F)n2)cc(-n2cnc(C(C)(C)O)c2)c1` [Example 99, 2-[1-(3-methyl-5-{[4-(trifluoromethyl)pyrimidin-2-yl]amino}phenyl)-1H-imidazol-4-yl]propan-2-ol] the IC50 was ≤ 100 nM. `Cc1ccnc(Nc2cccc(-n3cnc(C(C)(C)O)c3)n2)c1` [Example 100, 2-(1-{6-[(4-methylpyridin-2-yl)amino]pyridin-2-yl}-1H-imidazol-4-yl)propan-2-ol] was tested, and the IC50 was 100 to 1000 nM. `CC(C)(O)c1cn(-c2cccc(Nc3cc(Cl)ccn3)n2)cn1` [Example 101, 2-(1-{6-[(4-chloropyridin-2-yl)amino]pyridin-2-yl}-1H-imidazol-4-yl)propan-2-ol] was tested, and the IC50 was ≤ 100 nM. In the case of `COC(=O)c1cn(-c2cccc(Nc3cc(C)ccn3)n2)cn1` [Example 102, Methyl 1-{6-[(4-methylpyridin-2-yl)amino]pyridin-2-yl}-1H-imidazole-4-carboxylate], the IC50 is reported as 100 to 1000 nM. Compound `CC(C)NC(=O)c1cn(-c2cccc(Nc3nccc(C(F)(F)F)n3)c2)cn1` [Example 103, N-(1-methylethyl)-1-(3-{[4-(trifluoromethyl)pyrimidin-2-yl]amino}phenyl)-1H-imidazole-4-carboxamide] has an IC50 of 100 to 1000 nM. `CC(C)(O)c1cn(-c2cccc(Nc3nccc(C(F)(F)F)n3)c2)cn1` [Example 104, 2-[1-(3-{[4-(trifluoromethyl)pyrimidin-2-yl]amino}-phenyl)-1H-imidazol-4-yl]propan-2-ol] showed an IC50 of 100 to 1000 nM. For `CC(C)(O)CCc1cn(-c2cc(Nc3nccc(C(F)(F)F)n3)cc(N3CCOCC3)c2)cn1` [Example 105, 2-methyl-4-[1-(3-morpholin-4-yl-5-{[4-(trifluoromethyl)pyrimidin-2-yl]amino}-phenyl)-1H-imidazol-4-yl]butan-2-ol], the IC50 was ≤ 100 nM. `COC(=O)CCc1cn(-c2cc(Nc3nccc(C(F)(F)F)n3)cc(N3CCOCC3)c2)cn1` [Example 106, Methyl 3-[1-(3-morpholin-4-yl-5-{[4-(trifluoromethyl)pyrimidin-2-yl]amino}-phenyl)-1H-imidazol-4-yl]propanoate] was tested, and the IC50 was ≤ 100 nM. `CC(C)(O)c1cn(-c2cc(Nc3nccc(C(F)(F)F)n3)cc(N3CCOCC3)c2)cn1` [Example 107, 2-[1-(3-morpholin-4-yl-5-{[4-(trifluoromethyl)pyrimidin-2-yl]amino}-phenyl)-1H-imidazol-4-yl]propan-2-ol] was tested, and the IC50 was ≤ 100 nM. For `COC(=O)c1cn(-c2cc(Nc3nccc(C(F)(F)F)n3)cc(N3CCOCC3)c2)cn1` [Example 108, Methyl 1-(3-morpholin-4-yl-5-{[4-(trifluoromethyl)-pyrimidin-2-yl]amino}-phenyl)-1H-imidazole-4-carboxylate], the IC50 was 100 to 1000 nM. In the case of `Cc1cc(Nc2nccc(C(F)(F)F)n2)cc(-n2cnc(C3(O)CCNC(=O)CC3)c2)c1` (stereo not drawn) [Example 109, 5-hydroxy-5-[1-(3-methyl-5-{[4-(trifluoromethyl)pyrimidin-2-yl]amino}phenyl)-1H-imidazol-4-yl]azepan-2-one], the IC50 is reported as ≤ 100 nM. Work on `Cc1cc(Nc2nccc(C(F)(F)F)n2)cc(-n2cnc(C(C)(C)C#N)c2)c1` [Example 110, 2-Methyl-2-[1-(3-methyl-5-{[4-(trifluoromethyl)pyrimidin-2-yl]amino}phenyl)-1H-imidazol-4-yl]propanenitrile] yielded an IC50 of 100 to 1000 nM. For `Cc1cc(Nc2nccc(C(F)(F)F)n2)cc(-n2cnc(C(C)(C)C(=O)O)c2)c1` [Example 111, 2-Methyl-2-[1-(3-methyl-5-{[4-(trifluoromethyl)pyrimidin-2-yl]amino}phenyl)-1H-imidazol-4-yl]propanoic acid], the IC50 was ≤ 100 nM. In the case of `C=C(C)c1cn(-c2cc(C)cc(Nc3nccc(C(F)(F)F)n3)c2)cn1` [Example 112, N-{3-Methyl-5-[4-(prop-1-en-2-yl)-1H-imidazol-1-yl]phenyl}-4-(trifluoromethyl)pyrimidin-2-amine], the IC50 is reported as ≤ 100 nM. With `O=C(O)CCc1cn(-c2cccc(Nc3cc(C(F)(F)F)ccn3)n2)cn1` [Example 114, 3-(1-(6-((4-(Trifluoromethyl)pyridin-2-yl)amino)pyridin-2-yl)-1H-imidazol-4-yl)propanoic acid] the IC50 was ≤ 100 nM. `Cc1cc(Nc2cc(C3CC3)ccn2)nc(-n2cnc(CCC(=O)O)c2)c1` [Example 115, 3-(1-(6-((4-cyclopropylpyridin-2-yl)amino)-4-methylpyridin-2-yl)-1H-imidazol-4-yl)propanoic acid] was tested, and the IC50 was ≤ 100 nM. With `Cc1cc(Nc2cc(C(F)(F)F)ccn2)nc(-n2cnc(C3(O)CCN(C(N)=O)CC3)c2)c1` [Example 116, 4-Hydroxy-4-[1-(4-methyl-6-{[4-(trifluoromethyl)pyridin-2-yl]amino}pyridin-2-yl)-1H-imidazol-4-yl]piperidine-1-carboxamide] the IC50 was ≤ 100 nM. `Cc1cc(Nc2nccc(C(F)(F)F)n2)cc(-n2cnc(C3(O)CCN(C(N)=O)CC3)c2)c1` [Example 117, 4-Hydroxy-4-[1-(3-methyl-5-{[4-(trifluoromethyl)pyrimidin-2-yl]amino}phenyl)-1H-imidazol-4-yl]piperidine-1-carboxamide] was tested, and the IC50 was ≤ 100 nM.

Same assay, conditions: ATP 25 μM, 10-dose titration, read-out: rhSYK IC50
In the case of `Cc1cc(Nc2nccc(C(F)(F)F)n2)cc(-n2cnc(C3(O)CCNC(=O)CC3)c2)c1` (stereo not drawn) [Example 109, 5-hydroxy-5-[1-(3-methyl-5-{[4-(trifluoromethyl)pyrimidin-2-yl]amino}phenyl)-1H-imidazol-4-yl]azepan-2-one], the IC50 is reported as 19.7 nM. With `Cc1cc(Nc2cc(C(F)(F)F)ccn2)nc(-n2cnc(C3(O)CCN(C(N)=O)CC3)c2)c1` [Example 116, 4-Hydroxy-4-[1-(4-methyl-6-{[4-(trifluoromethyl)pyridin-2-yl]amino}pyridin-2-yl)-1H-imidazol-4-yl]piperidine-1-carboxamide] the IC50 was 3.6 nM. `Cc1cc(Nc2nccc(C(F)(F)F)n2)cc(-n2cnc(C3(O)CCN(C(N)=O)CC3)c2)c1` [Example 117, 4-Hydroxy-4-[1-(3-methyl-5-{[4-(trifluoromethyl)pyrimidin-2-yl]amino}phenyl)-1H-imidazol-4-yl]piperidine-1-carboxamide] showed an IC50 of 9 nM.
